Patent US20120309812A1 (SYNGENTA CROP PROTECTION LLC, priority 2010, published 2012)

Experiments:
Myzus persicae = Myzus persicae (Green peach aphid) sunflower leaf disc spray test; format: in vivo; details: application rate 200 ppm, sprayed sunflower leaf discs, aphid population of mixed ages, mortality 6 DAT
Experimental: Myzus persicae (Green peach aphid):
Sunflower leaf discs were placed on agar in a 24-well microtiter plate and sprayed with test solutions at an application rate of 200 ppm. After drying, the leaf discs were infested with an aphid population of mixed ages. After an incubation period of 6 DAT, samples were checked for mortality. The following compound gave at least 80% control of Myzus persicae: A3.

SMILES	control of Myzus persicae (Myzus persicae)	melting point
COc1c(NC(=O)c2ccccc2)cccc1C(=O)Nc1c(Cl)cc(C(F)(c2ccc(Cl)cc2)C(F)(F)F)cc1Cl (centres unmarked) [A3]	at least 80%	–
O=C(Nc1c(Cl)cc(C(F)(c2ccsc2)C(F)(F)F)cc1Cl)c1cccc(NC(=O)c2c(F)cc(F)cc2F)c1F (centres unmarked) [A5, N-{3-[2,6-Dichloro-4-(2,2,2-trifluoro-1-fluoro-1-thiophen-3-ylethyl)-phenylcarbamoyl]-2-fluorophenyl}-2,4,6-trifluorobenzamide]	–	197 to 199 °C
